Experiments:
[1] = dechlorination in platinum-catalyzed hydrogenation, semi-continuous reactor; details: for Dechlor: ppm based on weight of product amine
Procedure: The autoclave was sealed, the air was displaced with nitrogen and the autoclave was pressure tested. The nitrogen was replaced with hydrogen and the contents of the autoclave were heated to 80° C. The agitation was started and the contents of the autoclave were heated to 100° C. The pressure control regulator on the hydrogen feed was set at 540 psig and this pressure maintained in the autoclave throughout the reduction. The addition of 510 g of 3,4-dichloro-1-nitrobenzene crude (containing 11% 2,3- and 1% 2,5- isomers) was started. During the simultaneous feeding of the hydrogen and the nitroaromatic, the temperature was allowed to rise to 135° C. where it was controlled by the automated cooling water system. The addition of the nitroaromatic was completed in about 120 minutes. […] Heating at reaction conditions was continued for an additional 15 minutes. The autoclave was cooled, the hydrogen was displaced with nitrogen and the organic phase was separated.

[2] = dehalogenation inhibitor evaluation in laboratory batch hydrogenation
Procedure: The autoclave was sealed, the air was displaced with nitrogen and the autoclave was pressure tested. The nitrogen was replaced with hydrogen and the contents of the autoclave were heated to 75° C. The agitation was started and the pressure control regulator on the hydrogen feed was set to a maximum of 500 psig. […] The reduction was terminated. The autoclave was cooled, the hydrogen was displaced with nitrogen and the organic phase was separated.
Hydrogenation temperature was controlled at 110° C. instead of 96° C.

[3] = per literature data; cited from earlier work
[4] = storage stabilization of molten 3,4-dichloroaniline at 110° C.; details: 0.43 wt. % additive
Procedure: Round bottom drying ampuls of 20 ml capacity were dried by heating and were then cooled under nitrogen. Ten ml of test samples consisting of molten 3,4-dichloroaniline containing candidate stabilizers were pipetted into the ampuls which were sealed under nitrogen and stored in a 110° C. oven. Periodically an ampul of each sample was removed from the oven and evaluated.

[5] = 2.0 mole % inhibitor based on nitroaromatic
[6] = 2.1 mole % inhibitor based on nitroaromatic

## CC(O)CN (stereo not shown) [1-amino-2-propanol]
[1]; 1.5 mole % inhibitor based on nitroaromatic
  Dechlor: 470 ppm

## COCCN [2-methoxyethylamine]
[2]; Example 10, 1.0 weight % inhibitor, otherwise as Example 8
  dechlorinated derivatives in product amine: 0.05%
[2]; batch, similar conditions (96° C.)
  dehalogenation inhibition: good dehalogenation inhibitor being approximately equivalent to morpholine
[3]
  pKb: 4.6
[1]; [5]
  Dechlor: 282 ppm
[4]; 7 days
  Color: Lt yellow
  High Boilers: 0.05 Weight %
[4]; 60 days
  Color: Yellow
  High Boilers: 0.07 Weight %

## NCCCO [3-amino-1-propanol]
[3]
  pKb: 4.1
[1]; [5]
  Dechlor: 423 ppm

## COCCCN [3-methoxy-1-propylamine]
[1]; 2.5 mole % inhibitor based on nitroaromatic
  Dechlor: 438 ppm

## OCCNCCO [diethanolamine]
[3]
  pKb: 5.0
[1]; [6]
  Dechlor: 344 ppm

## NCCO [ethanolamine]
[2]; Example 8, 0.5 weight % inhibitor, 96° C., 7.9 mg platinum, terminated at 188 minutes
  dechlorination (total of aniline and monochloroanilines calculated as p-chloroaniline): 0.03%
[2]; Example 9, 0.375 weight % inhibitor, 110° C., 15.8 mg platinum
  dechlorinated derivatives in product amine: 0.003%
[2]; batch, 96° C., concentrations near optimum for semicontinuous unit
  dehalogenation: very low
[1]; Example 1, 0.4 weight % and 1.2 mole % inhibitor based on nitroaromatic, 135° C., 540 psig
  dechlorination (total of aniline and monochloroanilines in the product calculated as p-chloroaniline): less than 235 ppm

## C1COCCN1 [morpholine, reference compound]
[1]; [6]
  Dechlor: 548 ppm
